System: male db/db mice
Experiment: Hypoglycemic activity in db/db mice (blood glucose level)
Assay type: in vivo
Details: 30 mg/kg orally once a day for 2 weeks, blood glucose level on the last day
Protocol: The test compounds as disclosed in Examples were dissolved or suspended in a 0.5% carbomethyl cellulose solution, and orally administered to male db/db mice (7 to 8 weeks old) at a final dose of 30 mg/kg once a day for 2 weeks. On the last day, the blood was taken at the tail vein, and immediately thereafter, perchloric acid was added for removing proteins, and the blood glucose level was measured by Glucolse CII Test Wako (Wako Pure Industries, Ltd.).
The hypoglycemic activity was calculated by the following equation.

In order of falling “Hypoglycemic Activity (%)” value:
1. Cc1ccc(C(=O)c2c(C)n(C/C=C/c3ccc(COC(C)(C)C(=O)O)cc3)c3ncccc23)cc1 [Example 20, 2-Methyl-2-[(4-{(1E)-3-[2-Methyl-3-(4-methylbenzoyl)-1H-pyrrolo[2,3-b]pyridin-1-yl]prop-1-en-1-yl}benzyl)oxy]propionic acid]  50.4%
2. COc1ccc2c(C(=O)c3ccc(C)cc3)c(C)n(Cc3cccc(CO[C@H](C)C(=O)O)c3)c2c1 [Example 54, (2R)-2-[(3-{[6-Methoxy-2-methyl-3-(4-methylbenzoyl)-1H-indol-1-yl]methyl-}benzyl)oxy]propionic acid]  47.7%
3. Cc1ccc(C(=O)c2nn(/C=C/c3ccc(CO[C@H](C)C(=O)O)cc3)c3ccccc23)cc1 [Example 34, (2R)-2-[(4-{(E)-2-[3-(4-Methylbenzoyl)-1H-indazol-1-yl]vinyl}benzyl)oxy]propanoic acid]  47.4%
4. Cc1ccc(C(=O)c2nn(C/C=C/c3ccc(COC(C)(C)C(=O)O)cc3)c3ccccc23)cc1 [Example 35, 2-Methyl-2-[(4-{(1E)-3-[3-(4-methylbenzoyl)-1H-indazol-1-yl]prop-1-en-1-yl}benzyl)oxy]propanoic acid]  27.3%

Target: T1, human PPARγ ligand binding domain fused to GAL4 DNA binding domain (Homo sapiens, UniProt P37231)
T1 construct: human PPARγ (including amino acids residue 204-505); expressed in transfected cells; host or cells: COS-1 cells
T1 sequence (P37231 204-505): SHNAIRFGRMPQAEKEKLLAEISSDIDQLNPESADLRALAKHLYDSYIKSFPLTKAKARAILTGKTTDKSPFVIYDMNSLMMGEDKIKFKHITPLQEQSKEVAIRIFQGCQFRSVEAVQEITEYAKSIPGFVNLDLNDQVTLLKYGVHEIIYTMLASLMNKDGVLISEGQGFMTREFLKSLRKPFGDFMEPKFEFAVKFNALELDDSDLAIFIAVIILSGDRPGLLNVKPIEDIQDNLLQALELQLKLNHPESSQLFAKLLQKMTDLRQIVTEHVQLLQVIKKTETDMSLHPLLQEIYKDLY
Experiment: GAL4-PPARγ luciferase reporter assay in COS-1 cells
Assay type: cell-based
Details: 10 μM, relative luciferase activity, vehicle (DMSO) control regarded as 1, 24 hours
Text: (§1) Evaluation of PPAR α or γ Agonistic Activity
(§2) Construction of Reporter Plasmid
(§3) By inserting a gene fragment encoding the ligand binding domain of human PPARα (including amino acid residues 167-468) or a gene fragment encoding the ligand binding domain of human PPARγ (including amino acids residue 204-505) into a multicloning site of expressing vector pM containing DNA binding domain of yeast GAL4 protein (Clonetech), a vector plasmid for expressing a fused protein of GAL4 protein DNA binding domain and human PPARα or γ ligand binding domain was obtained.
(§4) As a reporter plasmid, pGL3-Basic Vector containing firefly luciferase gene (Promega Corporation) was used wherein Gal 4-responsive sequence UAS and rabbit β-globin promoter were inserted.
(§5) For the correction of transformation efficiency, a plasmid pβgal control (Clonetech) containing lacZ gene, was used.
COS-1 cells were cultured in the phenol red free Dulbecco's Modified Eagles Medium (DMEM) (Gibco) supplemented with 5% activated charcoal/dextran stripped fetal bovine serum at 37° C. with 5% carbon dioxide. The COS-1 cells were plated at a concentration of 5×10^4 cells/well into a 24-well plate, and were incubated overnight. The medium was replaced with a fresh medium supplemented […] 5% activated charcoal/dextran treated fetal bovine serum. Further, the cells were transfected using Lipofectamine plus reagent (Gibco) with plasmids GAL4-PPARα- or γ-expressing plasmid (5 ng), the reporter plasmid (50 ng), and pβgal control (350 ng) per well. After incubation for 4 hours, the medium was changed with a fresh medium supplemented with 5% activated charcoal/dextran treated fetal bovine serum. Then, the compound of the present invention was added thereto in such an amount that the final concentration thereof is 0.1 μM, 0.3 μM, 1 μM, 3 μM or 10 μM. After the cultivation for 24 hours, the cells were lysed with a solution for cell lysis accompanied to the Luciferase Assay System (Promega Corporation). The luciferase activity therein was measured by a luminometer using the reagent for measuring luciferase which was also accompanied to said System.
The PPARα- or γ-agonistic activity was expressed as a relative activity where the luciferase activity in the well to which the vehicle (DMSO) was added as control was regarded as 1. The PPARα-agonistic activity and the PPARγ-agonistic activity at each 10 μM, and the maximum PPARγ-agonistic activity (%) of the compound of the present invention per the maximum PPARγ-agonistic activity (100%) of pioglitazone are shown in the following Table 1.

With `Cc1ccc(C(=O)c2c(C)n(-c3ccc(COC4(C(=O)O)CCC4)cc3)c3ccccc23)cc1` [Example 86, 1-({4-[2-Methyl-3-(4-methylbenzoyl)-1H-indol-1-yl]benzyl}oxy)cyclobutane carboxylic acid] the “PPARγ-agonistic activity (10 μM)” value was 2.8.

Same assay, conditions: maximum PPARγ-agonistic activity per the maximum PPARγ-agonistic activity (100%) of pioglitazone

In order of rising Emax:
1. Cc1ccc(C(=O)c2c(C)c3ccc(C(F)(F)F)cc3n2Cc2ccc(/C=C/COC(C)(C)C(=O)O)cc2)cc1 [Compound 83]  13%
2. Cc1ccc(C(=O)c2c(C)n(-c3ccc(COC4(C(=O)O)CCC4)cc3)c3ccccc23)cc1 [Example 86, 1-({4-[2-Methyl-3-(4-methylbenzoyl)-1H-indol-1-yl]benzyl}oxy)cyclobutane carboxylic acid]  20%
3. COc1ccc2c(C(=O)c3ccc(C)cc3)c(C)n(Cc3ccc(CO[C@H](C)C(=O)O)cc3)c2c1 [Compound 46]  26%
4. Cc1ccc(C(=O)c2c(C)n(Cc3ccc(/C=C/COC(C)(C)C(=O)O)cc3)c3ccccc23)cc1 [Compound 79]  35%
5. COc1ccc2c(C(=O)c3ccc(C)cc3)c(C)n(Cc3cccc(CO[C@H](C)C(=O)O)c3)c2c1 [Compound 54]  39%
6. Cc1ccc(C(=O)c2c(C)n(Cc3cccc(CO[C@H](C)C(=O)O)c3)c3ncccc23)cc1 [Compound 59]  41%
7. COc1ccc2c(C(=O)c3ccc(C)cc3)c(C)n(Cc3ccc(/C=C/COC(C)(C)C(=O)O)cc3)c2c1 [Compound 81]  42%
8. Cc1ccc(C(=O)c2cccn2C/C=C\c2ccc(COC(C)(C)C(=O)O)cc2)cc1 [Compound 1]  51%
9. Cc1ccc(C(=O)c2nn(C/C=C/c3ccc(COC(C)(C)C(=O)O)cc3)c3ccccc23)cc1 [Compound 35]  57%
10. Cc1ccc(C(=O)c2c(C)n(C/C=C/c3ccc(COC(C)(C)C(=O)O)cc3)c3ncccc23)cc1 [Compound 20]  68%
11. Cc1ccc(C(=O)c2ccn(C/C=C/c3ccc(CO[C@H](C)C(=O)O)cc3)n2)cc1 [Compound 21]  71%
12. Cc1ccc(C(=O)c2cccn2Cc2ccc(/C=C/CO[C@H](C)C(=O)O)cc2)cc1 [Compound 68]  71%

Target: T2, human PPARα ligand binding domain fused to GAL4 DNA binding domain (Homo sapiens, UniProt Q07869)
T2 construct: human PPARα (including amino acid residues 167-468); expressed in transfected cells; host or cells: COS-1 cells
T2 sequence (Q07869 167-468): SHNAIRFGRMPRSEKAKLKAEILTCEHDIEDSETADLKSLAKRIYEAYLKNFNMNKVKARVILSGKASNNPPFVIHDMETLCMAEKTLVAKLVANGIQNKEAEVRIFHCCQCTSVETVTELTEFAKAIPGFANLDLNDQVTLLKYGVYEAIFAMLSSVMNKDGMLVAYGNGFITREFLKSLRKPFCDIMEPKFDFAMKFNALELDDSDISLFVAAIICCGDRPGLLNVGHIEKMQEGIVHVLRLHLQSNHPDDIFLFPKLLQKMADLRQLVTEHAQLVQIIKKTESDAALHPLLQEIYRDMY
Experiment: GAL4-PPARα luciferase reporter assay in COS-1 cells
Assay type: cell-based
Details: relative luciferase activity, vehicle (DMSO) control regarded as 1, 24 hours
Text: as §1, §2, §3, §4, §5
COS-1 cells were cultured in the phenol red free Dulbecco's Modified Eagles Medium (DMEM) (Gibco) supplemented with 5% activated charcoal/dextran stripped fetal bovine serum at 37° C. with 5% carbon dioxide. […] The luciferase activity therein was measured by a luminometer using the reagent for measuring luciferase which was also accompanied to said System.
The PPARα- or γ-agonistic activity was expressed as a relative activity where the luciferase activity in the well to which the vehicle (DMSO) was added as control was regarded as 1. […]

For `Cc1ccc(C(=O)c2c(C)n(-c3ccc(COC4(C(=O)O)CCC4)cc3)c3ccccc23)cc1` [Example 86, 1-({4-[2-Methyl-3-(4-methylbenzoyl)-1H-indol-1-yl]benzyl}oxy)cyclobutane carboxylic acid], the “PPARα-agonistic activity (10 μM)” value was 1.3.

Reference: patent US7781479B2, “Heteroaryl derivatives” (Dainippon Sumitomo Pharma Co., Ltd., priority 2005, dated 2010)
